Reference: ChEMBL document CHEMBL1132752, “Structure-activity relationships of trans-3,5-disubstituted pyrrolidinylthio-1beta-methylcarbapenems. Part 2: J-111,225, J-114,870, J-114,871 and related compounds” (2000)
In brackets after ≈: the same amount, converted by molar mass.

Tests used:
Format in all cases: functional
Sus scrofa = species on record: Sus scrofa; test: Porcine renal DHP-1 susceptibility.
Escherichia coli = test: In vitro antimicrobial activity against Escherichia coli NIHJ JC2
Pseudomonas aeruginosa [1] = test: In vitro antimicrobial activity against Pseudomonas aeruginosa AK 109
Pseudomonas aeruginosa [2] = test: In vitro antimicrobial activity against ceftazidime resistant Pseudomonas aeruginosa AKR 17
Rattus norvegicus = test: Epileptogenicity at 200 ug in rat intracerebroventricular assay.
[3] = test system: Staphylococcus epidermidis; test: In vitro antimicrobial activity against methicillin resistant Staphylococcus epidermidis MB5181
Staphylococcus aureus [4] = test: In vitro antimicrobial activity against Staphylococcus aureus 209P NIHJ JCI
Staphylococcus aureus [5] = test: In vitro antimicrobial activity against methicillin resistant Staphylococcus aureus pMS520

Compound | Susceptibility (Sus scrofa) | MIC (Escherichia coli) [µg/mL] | MIC (Pseudomonas aeruginosa [1]) [µg/mL] | MIC (Pseudomonas aeruginosa [2]) [µg/mL] | Epileptogenicity (Rattus norvegicus) | MIC [3] [µg/mL] | MIC (Staphylococcus aureus [4]) [ng/mL] | MIC (Staphylococcus aureus [5]) [µg/mL]
CCNCc1ccc([C@H]2C[C@H](SC3=C(C(=O)O)N4C(=O)[C@H]([C@@H](C)O)[C@H]4[C@H]3C)CN2)cc1 | 0.44 | 0.025 (≈ 0.0561 µM) | 1.56 (≈ 3.5 µM) | 6.25 (≈ 14 µM) | 0 | 1.56 (≈ 3.5 µM) | < 6 | 1.56 (≈ 3.5 µM)
CNCc1ccc([C@H]2C[C@H](SC3=C(C(=O)O)N4C(=O)[C@H]([C@@H](C)O)[C@H]4[C@H]3C)CN2)o1 | 0.1 | 0.025 (≈ 0.0593 µM) | 1.56 (≈ 3.7 µM) | 12.5 (≈ 29.7 µM) | – | 1.56 (≈ 3.7 µM) | < 6 | 3.13 (≈ 7.43 µM)
C[C@@H](O)[C@H]1C(=O)N2C(C(=O)O)=C(S[C@@H]3CN[C@@H](c4ccc([C@H](N)CC(N)=O)cc4)C3)[C@H](C)[C@H]12 | 0.27 | 0.025 (≈ 0.0527 µM) | 1.56 (≈ 3.29 µM) | 1.56 (≈ 3.29 µM) | 0 | 1.56 (≈ 3.29 µM) | < 6 | 1.56 (≈ 3.29 µM)
C[C@@H](O)[C@H]1C(=O)N2C(C(=O)O)=C(S[C@@H]3CN[C@@H](c4ccc(CN)s4)C3)[C@H](C)[C@H]12 | 0.84 | 0.025 (≈ 0.059 µM) | 0.78 (≈ 1.84 µM) | 3.13 (≈ 7.39 µM) | 5 | 1.56 (≈ 3.68 µM) | < 6 | 1.56 (≈ 3.68 µM)
C[C@@H](O)[C@H]1C(=O)N2C(C(=O)O)=C(SCCNC=N)C[C@H]12.O | 1 | 0.1 | 1.56 | 3.13 | 5 | 50 | < 6 | 50
CCSCC(N)c1ccc([C@H]2C[C@H](SC3=C(C(=O)O)N4C(=O)[C@H]([C@@H](C)O)[C@H]4[C@H]3C)CN2)cc1 (stereo partly drawn) | 0.27 | 0.025 (≈ 0.0508 µM) | 3.13 (≈ 6.37 µM) | 12.5 (≈ 25.4 µM) | – | 0.78 (≈ 1.59 µM) | < 6 | 1.56 (≈ 3.17 µM)
CN[C@H](CC(C)C)C(=O)N[C@H]1C(=O)N[C@@H](CC(N)=O)C(=O)N[C@H]2C(=O)N[C@H]3C(=O)N[C@H](C(=O)N[C@H](C(=O)O)c4cc(O)cc(O)c4-c4cc3ccc4O)[C@H](O)c3ccc(c(Cl)c3)Oc3cc2cc(c3O[C@@H]2O[C@H](CO)[C@@H](O)[C@H](O)[C@H]2O[C@H]2C[C@](C)(N)[C@H](O)[C@H](C)O2)Oc2ccc(cc2Cl)[C@H]1O [VANCOMYCIN] | – | > 100 | > 100 | > 100 | – | – | 390 (≈ 0.269 µM) | 0.78 (≈ 0.538 µM)
CC(C)NCc1ccc([C@H]2C[C@H](SC3=C(C(=O)O)N4C(=O)[C@H]([C@@H](C)O)[C@H]4[C@H]3C)CN2)cc1 | – | 0.05 (≈ 0.109 µM) | 0.78 (≈ 1.7 µM) | 6.25 (≈ 13.6 µM) | – | 1.56 (≈ 3.39 µM) | < 6 | 1.56 (≈ 3.39 µM)
C/C(N)=N/Cc1ccc([C@H]2C[C@H](SC3=C(C(=O)O)N4C(=O)[C@H]([C@@H](C)O)[C@H]4[C@H]3C)CN2)cc1 | 0.25 | 0.05 (≈ 0.109 µM) | 1.56 (≈ 3.4 µM) | 6.25 (≈ 13.6 µM) | – | 0.78 (≈ 1.7 µM) | < 6 | 1.56 (≈ 3.4 µM)
C[C@@H](O)[C@H]1C(=O)N2C(C(=O)O)=C(S[C@@H]3CN[C@@H](c4ccc(CN)cc4)C3)[C@H](C)[C@H]12 | 0.29 | 0.025 (≈ 0.0599 µM) | 0.39 (≈ 0.934 µM) | 3.13 (≈ 7.5 µM) | 5 | 1.56 (≈ 3.74 µM) | < 6 | 0.78 (≈ 1.87 µM)
CNCc1ccc([C@H]2C[C@H](SC3=C(C(=O)O)N4C(=O)[C@H]([C@@H](C)O)[C@H]4[C@H]3C)CN2)s1 | 0.35 | 0.025 (≈ 0.0571 µM) | 1.56 (≈ 3.57 µM) | 3.13 (≈ 7.15 µM) | 3 | 3.13 (≈ 7.15 µM) | < 6 | 1.56 (≈ 3.57 µM)
C[C@@H](O)[C@H]1C(=O)N2C(C(=O)O)=C(S[C@@H]3CN[C@@H](c4ccc(C(C)(C)N)cc4)C3)[C@H](C)[C@H]12 | 0.37 | 0.05 (≈ 0.112 µM) | 1.56 (≈ 3.5 µM) | 6.25 (≈ 14 µM) | 0 | 1.56 (≈ 3.5 µM) | < 6 | 1.56 (≈ 3.5 µM)
C[C@@H](O)[C@H]1C(=O)N2C(C(=O)O)=C(S[C@@H]3CN[C@@H](c4ccc(CNCCO)cc4)C3)[C@H](C)[C@H]12 | 0.31 | 0.05 (≈ 0.108 µM) | 0.78 (≈ 1.69 µM) | 6.25 (≈ 13.5 µM) | – | 1.56 (≈ 3.38 µM) | < 6 | 1.56 (≈ 3.38 µM)
C[C@@H](O)[C@H]1C(=O)N2C(C(=O)O)=C(S[C@@H]3CN[C@@H](c4ccc(C(N)C(N)=O)cc4)C3)[C@H](C)[C@H]12 (stereo partly drawn) | 0.32 | 0.025 (≈ 0.0543 µM) | 1.56 (≈ 3.39 µM) | 6.25 (≈ 13.6 µM) | 0 | 3.13 (≈ 6.8 µM) | < 6 | 3.13 (≈ 6.8 µM)
C[C@@H](O)[C@H]1C(=O)N2C(C(=O)O)=C(S[C@@H]3CN[C@@H](c4ccc(CN)c5ccccc45)C3)[C@H](C)[C@H]12 | 0.16 | 0.05 (≈ 0.107 µM) | 6.25 (≈ 13.4 µM) | > 25 | 5 | 0.78 (≈ 1.67 µM) | < 6 | 1.56 (≈ 3.34 µM)
C[C@@H](O)[C@H]1C(=O)N2C(C(=O)O)=C(S[C@@H]3CN[C@@H](c4ccc(CCN)cc4)C3)[C@H](C)[C@H]12 | 0.26 | 0.025 (≈ 0.0579 µM) | 0.78 (≈ 1.81 µM) | 6.25 (≈ 14.5 µM) | 3 | 3.13 (≈ 7.25 µM) | < 6 | 1.56 (≈ 3.61 µM)
CC(N)c1ccc([C@H]2C[C@H](SC3=C(C(=O)O)N4C(=O)[C@H]([C@@H](C)O)[C@H]4[C@H]3C)CN2)cc1 (stereo partly drawn) | 0.55 | 0.025 (≈ 0.0579 µM) | 0.78 (≈ 1.81 µM) | 3.13 (≈ 7.25 µM) | 0 | 0.78 (≈ 1.81 µM) | < 6 | 1.56 (≈ 3.61 µM)
C[C@@H](O)[C@H]1C(=O)N2C(C(=O)O)=C(S[C@@H]3CN[C@@H](c4ccc(C5(N)CC5)cc4)C3)[C@H](C)[C@H]12 | 0.32 | 0.025 (≈ 0.0564 µM) | 3.13 (≈ 7.06 µM) | 6.25 (≈ 14.1 µM) | 0 | 1.56 (≈ 3.52 µM) | < 6 | 1.56 (≈ 3.52 µM)
CNCc1ccc([C@H]2C[C@H](SC3=C(C(=O)O)N4C(=O)[C@H]([C@@H](C)O)[C@H]4[C@H]3C)CN2)cc1 | 0.25 | 0.025 (≈ 0.0579 µM) | 0.39 (≈ 0.904 µM) | 1.56 (≈ 3.61 µM) | 0 | 1.56 (≈ 3.61 µM) | < 6 | 0.78 (≈ 1.81 µM)
CCC(N)c1ccc([C@H]2C[C@H](SC3=C(C(=O)O)N4C(=O)[C@H]([C@@H](C)O)[C@H]4[C@H]3C)CN2)cc1 (stereo partly drawn) | 0.2 | 0.1 (≈ 0.224 µM) | 3.13 (≈ 7.02 µM) | 25 (≈ 56.1 µM) | 0 | 1.56 (≈ 3.5 µM) | < 6 | 1.56 (≈ 3.5 µM)
C[C@@H](O)[C@H]1C(=O)N2C(C(=O)O)=C(S[C@@H]3CN[C@@H](c4cccc(CN)c4)C3)[C@H](C)[C@H]12 | 0.16 | 0.1 (≈ 0.24 µM) | 0.78 (≈ 1.87 µM) | 6.25 (≈ 15 µM) | 5 | 3.13 (≈ 7.5 µM) | < 6 | 1.56 (≈ 3.74 µM)
C[C@@H](O)[C@H]1C(=O)N2C(C(=O)O)=C(S[C@@H]3CN[C@@H](c4ccc(CN=C(N)N)cc4)C3)[C@H](C)[C@H]12 | – | 0.012 (≈ 0.0261 µM) | 0.78 (≈ 1.7 µM) | 3.13 (≈ 6.81 µM) | – | 0.78 (≈ 1.7 µM) | < 6 | 1.56 (≈ 3.39 µM)
C[C@@H](O)[C@H]1C(=O)N2C(C(=O)O)=C(S[C@@H]3CN[C@@H](c4ccc(C(N)CCO)cc4)C3)[C@H](C)[C@H]12 (stereo partly drawn) | – | 0.05 (≈ 0.108 µM) | 1.56 (≈ 3.38 µM) | 12.5 (≈ 27.1 µM) | 0 | 6.25 (≈ 13.5 µM) | < 6 | 3.13 (≈ 6.78 µM)
C[C@@H](O)[C@H]1C(=O)N2C(C(=O)O)=C(S[C@@H]3CN[C@@H](c4ccc([C@@H](N)CC(N)=O)cc4)C3)[C@H](C)[C@H]12 | 0.27 | 0.025 (≈ 0.0527 µM) | 0.78 (≈ 1.64 µM) | 1.56 (≈ 3.29 µM) | 0 | 1.56 (≈ 3.29 µM) | < 6 | 1.56 (≈ 3.29 µM)
C[C@@H](O)[C@H]1C(=O)N2C(C(=O)O)=C(S[C@@H]3CN[C@@H](c4ccc(CNCC(N)=O)cc4)C3)[C@H](C)[C@H]12 | 0.31 | 0.025 (≈ 0.0527 µM) | 1.56 (≈ 3.29 µM) | 6.25 (≈ 13.2 µM) | – | 1.56 (≈ 3.29 µM) | < 6 | 3.13 (≈ 6.6 µM)
C[C@@H](O)[C@H]1C(=O)N2C(C(=O)O)=C(S[C@@H]3CN[C@@H](c4ccc(CSC(=N)N)cc4)C3)[C@H](C)[C@H]12 | 0.3 | 0.05 (≈ 0.105 µM) | 1.56 (≈ 3.27 µM) | 12.5 (≈ 26.2 µM) | 3 | 1.56 (≈ 3.27 µM) | < 6 | 1.56 (≈ 3.27 µM)
C=CCC(N)c1ccc([C@H]2C[C@H](SC3=C(C(=O)O)N4C(=O)[C@H]([C@@H](C)O)[C@H]4[C@H]3C)CN2)cc1 (stereo partly drawn) | 0.29 | 0.025 (≈ 0.0546 µM) | 1.56 (≈ 3.41 µM) | 12.5 (≈ 27.3 µM) | 0 | 3.13 (≈ 6.84 µM) | < 6 | 1.56 (≈ 3.41 µM)
